Laboratory results published in patent US4849345A, “L-phenylalanine dehydrogenase and use thereof” (priority 1985, dated 1989).
Like-named read-outs stand apart in the source and are kept apart here.

How the values were obtained:
Assay type in all cases: biochemical
[1] = target: T1, L-phenylalanine dehydrogenase produced by Bacillus sp. SCRC-R79a (Lysinibacillus sphaericus, UniProt P23307); test: Effect of metal ions and inhibitors on enzyme activity (Bacillus enzyme); set-up: inoculated with Bacillus sp; endogenous in cells; host or cells: Bacillus sp; enzyme purified in house; details: for activity at 1000 µM: read-out: Relative activity
T1 sequence (P23307 1-381): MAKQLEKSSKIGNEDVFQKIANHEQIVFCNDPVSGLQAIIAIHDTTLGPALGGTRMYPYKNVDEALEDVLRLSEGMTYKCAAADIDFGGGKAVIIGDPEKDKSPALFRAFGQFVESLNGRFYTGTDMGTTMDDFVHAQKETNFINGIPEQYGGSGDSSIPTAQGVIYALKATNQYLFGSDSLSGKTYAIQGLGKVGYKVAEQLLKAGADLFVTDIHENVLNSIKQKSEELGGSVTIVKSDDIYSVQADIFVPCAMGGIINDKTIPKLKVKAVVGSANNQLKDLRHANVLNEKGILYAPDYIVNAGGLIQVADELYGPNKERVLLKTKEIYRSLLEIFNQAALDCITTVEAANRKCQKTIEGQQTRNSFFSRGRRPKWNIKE
Protocol: Unless otherwise described, the concentration of metal cations and inhibitors is 1 mM.

[2] = target: T2, L-phenylalanine dehydrogenase produced by Sporosarcina ureae SCRC-R04 (Sporosarcina ureae, UniProt P97014); test: biochemical; details: for activity at 1000 µM: read-out: Relative activity
T2 sequence (P97014 1-379): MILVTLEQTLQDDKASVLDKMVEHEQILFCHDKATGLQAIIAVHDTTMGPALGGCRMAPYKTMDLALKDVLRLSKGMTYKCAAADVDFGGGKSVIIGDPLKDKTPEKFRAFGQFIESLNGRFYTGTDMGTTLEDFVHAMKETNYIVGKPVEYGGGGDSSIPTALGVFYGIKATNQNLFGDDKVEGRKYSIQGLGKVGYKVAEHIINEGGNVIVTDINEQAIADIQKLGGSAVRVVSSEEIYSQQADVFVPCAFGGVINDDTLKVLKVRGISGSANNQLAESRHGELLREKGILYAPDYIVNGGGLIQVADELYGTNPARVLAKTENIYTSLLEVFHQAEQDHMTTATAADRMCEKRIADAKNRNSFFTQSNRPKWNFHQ

[3] = target: T1, L-phenylalanine dehydrogenase produced by Bacillus sp. SCRC-R79a; test: Substrate and coenzyme specificity, oxidative deamination (Bacillus enzyme); set-up: inoculated with Bacillus sp; endogenous in cells; host or cells: Bacillus sp; enzyme purified in house; details: for action of the enzyme on the amino acid as substrate (in words): oxidative deamination
Protocol: The substrate concentration is 10 mM except for the L-tyrosine concentration which is 1.4 mM.

[4] = target: T2, L-phenylalanine dehydrogenase produced by Sporosarcina ureae SCRC-R04; test: Substrate and coenzyme specificity, oxidative deamination (Sporosarcina enzyme); details: oxidative deamination
Protocol: The substrate concentration is 10 mM, except for the L-tyrosine concentration which is 1.4 mM.

[5] = read-out: Relative activity (%)
[6] = 1 mM, not added = 100, listed as Fe^3+, 1000 µM

SMILES | action of the enzyme on the amino acid as substrate (in words) [3] | action of the enzyme on the amino acid as substrate (in words) [4] | Relative activity ([1]; 1 mM, not added = 100) | Relative activity ([2]; 1 mM, not added = 100) | other results
Oc1cccc2cccnc12 [8-Oxyquinoline] |  |  |  |  | Relative activity ([1]; 1000 µM): 96; Relative activity ([2]; 1000 µM): 101
C[C@@H](O)[C@H](N)C(=O)O [L-threonine] | cannot serve as a substrate | cannot serve as a substrate |  |  | 
NC(C(=O)O)c1ccccc1 (racemic) [DL-phenylglycine] |  | cannot serve as a substrate |  |  | 
[Cu+2] [Cu^2+] |  |  | 85% | 91% | 
N[C@@H](Cc1ccc(O)cc1)C(=O)O [L--Tyrosine, L-tyrosine] | acting strongly | act very weakly |  |  | activity at 1400 µM [3, 5]: 72%; activity at 1400 µM ([4]; substrate concentration 1.4 mM, read-out: Relative activity (%)): 5.4%
[Mg+2] [Mg^2+] |  |  | 99% | 90% | 
N[C@@H](CC(=O)O)C(=O)O [L-aspartic acid] | cannot serve as a substrate | cannot serve as a substrate |  |  | 
[Zn+2] [Zn^2+] |  |  | 96% | 99% | 
[Ni+2] [Ni^2+] |  |  | 100% | 100% | 
O=C(O)c1cc(SSc2ccc([N+](=O)[O-])c(C(=O)O)c2)ccc1[N+](=O)[O-] [5,5'-Dithio-bis(2-nitrobenzoic acid)] |  |  |  |  | activity at 1000 µM ([1]; 1 mM, not added = 100): 74%; effect on enzyme activity (in words) [2]: inhibited; activity at 1000 µM ([2]; 1 mM, not added = 100): 0%
O=C(O)CI [Iodoacetic acid] |  |  |  |  | activity at 1000 µM [1]: 127%; activity at 1000 µM [2]: 91%
N=C(N)NCCC[C@H](N)C(=O)O [L-arginine] | cannot serve as a substrate | cannot serve as a substrate |  |  | 
[Ca+2] [Ca^2+] |  |  | 92% | 100% | 
c1cnc2c(c1)ccc1cccnc12 [o-Phenanthroline] |  |  |  |  | activity at 1000 µM ([1]; 1 mM, not added = 100): 99%; activity at 1000 µM ([2]; 1 mM, not added = 100): 103%
[Ag+] [Ag^+] |  |  | 0% | 0% | effect on enzyme activity (in words) [1]: inhibited; effect on enzyme activity (in words) [2]: inhibited
[N-]=[N+]=[N-].[Na+] [NaN3] |  |  | 102% | 100% | 
[Na+] [Na^+] |  |  | 93% | 92% | 
O=C(O)[C@@H]1CCCN1 [L-proline] | cannot serve as a substrate | cannot serve as a substrate |  |  | 
NCCCC[C@H](N)C(=O)O [L-lysine] | cannot serve as a substrate | cannot serve as a substrate |  |  | 
c1ccc(-c2ccccn2)nc1 [α,α'-Dipyridyl] |  |  |  |  | activity at 1000 µM ([1]; 1 mM, not added = 100): 104%; activity at 1000 µM ([2]; 1 mM, not added = 100): 124%
O=C(O)c1cc[c]([Hg][Cl])cc1 [PCMB] |  |  |  |  | effect on enzyme activity (in words) [1]: inhibited; Relative activity ([1]; 0.2 mM, not added = 100): 0%; effect on enzyme activity (in words) [2]: inhibited; Relative activity ([2]; 0.2 mM, not added = 100): 0%
[Fe+2] [Fe^2+] |  |  |  |  | Relative activity ([1]; 1 mM, not added = 100, 1000 µM): 116%; Relative activity [1, 6]: 117%; Relative activity ([2]; 1 mM, not added = 100, 1000 µM): 127%; Relative activity [2, 6]: 161%
CSCC[C@H](N)C(=O)O [L--Methionine, L-methionine] | acting very weakly | act very weakly |  |  | activity at 10000 µM [3, 5]: 3%; activity at 10000 µM ([4]; substrate concentration 10 mM, L-phenylalanine = 100, read-out: Relative activity (%)): 4.1%
NC(=O)CC[C@H](N)C(=O)O [L-glutamine] | cannot serve as a substrate | cannot serve as a substrate |  |  | 
O=C(O)CN(CCN(CC(=O)O)CC(=O)O)CC(=O)O [EDTA] |  |  |  |  | activity at 1000 µM [1]: 120%; activity at 1000 µM [2]: 119%
